Values quoted from earlier work as cited in patent US9718036B2, “Method of preparing carrier liquids” (The University of Liverpool, priority 2011, dated 2017).
In brackets after ≈: the same amount, converted by molar mass.

Conditions: at 20° C.

In the case of `CC1(C)C(/C=C(\Cl)C(F)(F)F)C1C(=O)OC(C#N)c1cccc(Oc2ccccc2)c1` (stereo not shown) [λ-cyhalothrin], the solubility in water is given as 5 µg/mL (≈ 11.1 µM).
